Experimental data: EP4574818A1, “ONIUM SALT OF NITROGEN-CONTAINING HETEROARYL COMPOUND AND PEST CONTROL AGENT” (priority 2022, dated 2024)
Like-named read-outs stand apart in the source and are kept apart here.

Legend:
Type in all cases: in vivo
Spodoptera litura = assay: Efficacy test against Spodoptera litura (cabbage leaf immersion); conditions: 144 h, read-out: mortality of Spodoptera litura
Experimental: A cabbage leaf was immersed in the diluted solution for 30 seconds. The cabbage leaf was air-dried and then put in a petri dish, followed by leaving five second-instar larvae of Spodoptera litura therein. The petri dish was placed in a thermostatic chamber at a temperature of 25°C and a humidity of 60%. After six days had passed from leaving the larvae, life or death was assessed and the mortality was calculated. The test was repeated twice.

Plutella xylostella = assay: Efficacy test against Plutella xylostella (cabbage leaf immersion); conditions: 72 h
Experimental: The emulsion (II) was diluted with water at the same dilution ratio as the diluted solution (I), thereby obtaining a diluted solution (II). A cabbage leaf was immersed in each of the diluted solutions for 30 seconds. Each cabbage leaf after immersion was air-dried and then put in a petri dish, followed by leaving five second-instar larvae of Plutella xylostella therein. The petri dishes were placed in a thermostatic chamber at a temperature of 25°C and a humidity of 60%. After three days had passed from leaving the larvae, life or death was assessed and the mortality was calculated. The test was repeated twice.

Mythimna separata = assay: Efficacy test against Mythimna separata (treated artificial feed); conditions: 1 µl of emulsion (I) (5% by mass active ingredient) mixed with 0.8 g artificial feed; second-instar larvae; 25°C; after five days
Experimental: (§1) 5 parts by mass of a compound of the present invention, 93.6 parts by mass of dimethylformamide, and 1.4 parts by mass of polyoxyethylene alkyl aryl ether were mixed and dissolved to obtain an emulsion (I) containing 5% by mass of the active ingredient.
0.8 g of commercially-available artificial feed (Insect LFS, manufactured by Nosan Corporation) and 1 µl of the emulsion (I) were mixed well, and then 0.2 g of the mixture per treated area was packed into plastic test containers (each having a capacity of 1.4 ml) as test feeds.
Two second-instar larvae of Mythimna separata were left per treated area, and then the test containers were sealed with plastic covers. The test containers were placed in a thermostatic chamber at 25°C, and, after five days had passed therefrom, the mortality and the feed intake were measured. The test was repeated twice.
In addition, the test was carried out under the same conditions as described above, except that the emulsion (II) was used instead of the emulsion (I), and evaluated as a solvent control area.

Phyllotreta striolata = assay: Efficacy test against Phyllotreta striolata (sprayed bok-choy seedling); conditions: 168 h, read-out: mortality against the adults of Phyllotreta striolata
Experimental: as §1
The emulsion (I) was diluted with water such that the concentration of the compound of the present invention became 125 ppm by mass. The diluted solution was sprayed to a bok-choy seedling (at the 7th leafe stage) planted in a 3-sun pot. After air-dried, the bok-choy seedling was placed in a plastic cup, and ten adults of Phyllotreta striolata were left therein. The plastic cup was placed in a thermostatic chamber at a temperature of 25°C and a humidity of 65%. After seven days had passed from leaving the adults, life or death was assessed and the mortality was calculated. The test was repeated twice.

[1] = 125 ppm by mass, cabbage leaf immersed 30 seconds, second-instar larvae, 25°C, humidity 60%, after six days
[2] = 125 ppm by mass, cabbage leaf immersed 30 seconds, second-instar larvae of Plutella xylostella, 25°C, humidity 60%, after three days, read-out: mortality
[3] = 125 ppm by mass, sprayed to bok-choy seedling, adults, 25°C, humidity 65%, after seven days

SMILES	mortality at 125 ppm (Spodoptera litura; [1])	mortality at 125 ppm (Plutella xylostella; [2])	mortality of Mythimna separata or feed intake relative to the feed intake at the solvent control area (Mythimna separata)	other results
Cn1c[n+]([N-]C(=O)c2cc(Cl)nc(Oc3ccc(OC(F)(F)C(F)(F)F)cc3)c2)cn1 [Compound 8]	≥ 80%	–	–	–
O=C([N-][n+]1ccccc1)c1cc(Cl)nc(Oc2cnn(C=C(F)C(F)(F)F)c2)c1 [Compound 217]	≥ 80%	–	–	–
O=C([N-][n+]1ccccc1)c1cc(Oc2ccc(OC(F)(F)F)cc2)nc(-c2ccc(F)cc2)c1 [Compound 207]	≥ 80%	≥ 80%	100% mortality of Mythimna separata or 10% or less of the feed intake	–
O=C([N-][n+]1ccccc1)c1cc(I)nc(Oc2ccc(OC(F)(F)C(F)(F)F)cc2)c1 [Compound 219, (2-iodo-6-(4-(perfluoroethoxy)phenoxy)isonicotinoyl)(pyridin-1-ium-1-yl)amide]	≥ 80%	≥ 80%	–	mortality at 125 ppm (Phyllotreta striolata; [3]): ≥ 80%
COc1cc[n+]([N-]C(=O)c2cc(Cl)nc(Oc3ccc(OC(F)(F)C(F)(F)F)cc3)c2)cc1 [Compound 6]	≥ 80%	≥ 80%	–	–
O=C([N-][n+]1cnn(CC(F)F)c1)c1cc(Cl)nc(Oc2ccc(OC(F)(F)C(F)(F)F)cc2)c1 [Compound 18]	≥ 80%	≥ 80%	–	–
CC(C)n1c[n+]([N-]C(=O)c2cc(Cl)nc(Oc3ccc(OC(F)(F)C(F)(F)F)cc3)c2)cn1 [Compound 19]	≥ 80%	≥ 80%	–	mortality at 125 ppm (Phyllotreta striolata; [3]): ≥ 80%
CCn1c[n+]([N-]C(=O)c2cc(Cl)nc(Oc3ccc4nc(C(F)(F)F)ccc4c3)c2)cn1 [Compound 216]	–	–	100% mortality of Mythimna separata or 10% or less of the feed intake	–
CCn1c[n+]([N-]C(=O)c2cc(Cl)nc(Oc3ccc(OC(F)(F)F)cc3)c2)cn1 [Compound 165, (2-chloro-6-(4-(trifluoromethoxy)phenoxy)isonicotinoyl)(1-ethyl-1H-1,2,4-triazol-4-ium-4-yl)amide]	≥ 80%	≥ 80%	100% mortality of Mythimna separata or 10% or less of the feed intake	–
O=C([N-][n+]1ccccc1)c1cc(Oc2ccc(OC(F)(F)C(F)(F)F)cc2)nc(C2CC2)c1 [Compound 215, (2-cyclopropyl-6-(4-(perfluoroethoxy)phenoxy)isonicotinoyl)(pyridin-1-ium-1-yl)amide]	≥ 80%	≥ 80%	100% mortality of Mythimna separata or 10% or less of the feed intake	–
Cc1cc[n+]([N-]C(=O)c2cc(Cl)nc(Oc3ccc(OC(F)(F)C(F)(F)F)cc3)c2)cc1 [Compound 5]	≥ 80%	≥ 80%	–	–
O=C([N-][n+]1ccccc1)c1cc(Oc2ccc(OC(F)(F)F)cc2)nc(Oc2ccc(OC(F)(F)F)cc2)c1 [Compound 208]	≥ 80%	≥ 80%	–	–
N#Cc1cc(C(=O)[N-][n+]2ccccc2)cc(Oc2ccc(OC(F)(F)C(F)(F)F)cc2)n1 [Compound 14]	≥ 80%	≥ 80%	–	–
O=C([N-][n+]1ccccc1)c1cc(Cl)nc(Oc2ccc(OC(F)(F)C(F)OC(F)(F)C(F)(F)C(F)(F)F)cc2)c1 (centres unmarked) [Compound 20]	–	–	–	mortality at 125 ppm (Spodoptera litura): ≥ 80%; mortality at 125 ppm (Plutella xylostella; Plutella xylostella): ≥ 80%; mortality at 125 ppm (Phyllotreta striolata): ≥ 80%
CCn1c[n+]([N-]C(=O)c2cc(Cl)nc(Oc3ccc(C4CC4(F)F)cc3)c2)cn1 (centres unmarked) [Compound 212]	–	–	100% mortality of Mythimna separata or 10% or less of the feed intake	–
O=C([N-][n+]1ccccc1)c1cc(Cl)nc(Oc2ccc(OC(F)(F)C(F)F)cc2)c1 [Compound 4]	≥ 80%	≥ 80%	100% mortality of Mythimna separata or 10% or less of the feed intake	–
O=C([N-][n+]1ccccc1)c1cc(Br)nc(Oc2ccc(OC(F)(F)C(F)F)cc2)c1 [Compound 13]	≥ 80%	≥ 80%	–	–
O=C([N-][n+]1cccc(F)c1)c1cc(Cl)nc(Oc2ccc(OC(F)(F)C(F)F)cc2)c1 [Compound 11]	≥ 80%	≥ 80%	–	–

SMILES	mortality at 125 ppm (Spodoptera litura; [1])	mortality at 125 ppm (Plutella xylostella; [2])	mortality of Mythimna separata or feed intake relative to the feed intake at the solvent control area (Mythimna separata)	other results
N#Cc1ccc(Oc2cc(C(=O)[N-][n+]3ccccc3)cc(Cl)n2)cc1 [Compound 209]	–	–	100% mortality of Mythimna separata or 10% or less of the feed intake	–
Cn1c[n+]([N-]C(=O)c2cc(Cl)nc(Oc3ccc(OC(F)(F)F)cc3)c2)cn1 [Compound 2]	≥ 80%	–	100% mortality of Mythimna separata or 10% or less of the feed intake	–
O=C([N-][n+]1ccccc1)c1cc(Br)nc(Oc2ccc(OC(F)(F)C(F)(F)F)cc2)c1 [Compound 12]	≥ 80%	≥ 80%	–	–
Cn1cc[n+]([N-]C(=O)c2cc(Cl)nc(Oc3ccc(OC(F)(F)C(F)(F)F)cc3)c2)c1 [Compound 9]	≥ 80%	≥ 80%	–	–
O=C([N-][n+]1ccccc1)c1cc(Cl)nc(Oc2ccc(OC(F)(F)C(F)OC(F)(F)C(F)(F)C(F)(F)OC(F)(F)F)cc2)c1 (centres unmarked) [Compound 22]	–	–	–	mortality at 125 ppm (Spodoptera litura): ≥ 80%; mortality at 125 ppm (Plutella xylostella; Plutella xylostella): ≥ 80%; mortality at 125 ppm (Phyllotreta striolata): ≥ 80%
O=C([N-][n+]1ccccc1)c1cc(Cl)nc(Oc2ccc(C3CC3(F)F)cc2)c1 (centres unmarked) [Compound 213]	–	–	100% mortality of Mythimna separata or 10% or less of the feed intake	–
CCn1c[n+]([N-]C(=O)c2cc(Cl)nc(Oc3ccc(OC(F)(F)C(F)OC(F)(F)C(F)(F)C(F)(F)OC(F)(F)F)cc3)c2)cn1 (centres unmarked) [Compound 23]	–	–	–	mortality at 125 ppm (Spodoptera litura): ≥ 80%; mortality at 125 ppm (Plutella xylostella; Plutella xylostella): ≥ 80%; mortality at 125 ppm (Phyllotreta striolata): ≥ 80%
CCn1c[n+]([N-]C(=O)c2cc(Cl)nc(Oc3ccc(C4CC4(Cl)Cl)cc3)c2)cn1 (centres unmarked) [Compound 210]	–	–	100% mortality of Mythimna separata or 10% or less of the feed intake	–
CCn1c[n+]([N-]C(=O)c2cc(Cl)nc(Oc3ccc(OC(F)(F)C(F)OC(F)(F)C(F)(F)C(F)(F)F)cc3)c2)cn1 (centres unmarked) [Compound 21]	–	–	–	mortality at 125 ppm (Spodoptera litura): ≥ 80%; mortality at 125 ppm (Plutella xylostella; Plutella xylostella): ≥ 80%; mortality at 125 ppm (Phyllotreta striolata): ≥ 80%
CCn1c[n+]([N-]C(=O)c2cc(I)nc(Oc3ccc(OC(F)(F)C(F)(F)F)cc3)c2)cn1 [Compound 218]	≥ 80%	≥ 80%	–	mortality at 125 ppm (Phyllotreta striolata; [3]): ≥ 80%
O=C([N-][n+]1ccccc1)c1cc(Cl)nc(Oc2ccc(OC(F)(F)C(F)OC(F)(F)F)cc2)c1 (centres unmarked) [Compound 16]	≥ 80%	≥ 80%	–	–
O=C([N-][n+]1cnn(CC(F)(F)F)c1)c1cc(Cl)nc(Oc2ccc(OC(F)(F)C(F)(F)F)cc2)c1 [Compound 17]	≥ 80%	≥ 80%	–	–
O=C([N-][n+]1ccccc1)c1cc(Cl)nc(Oc2ccc(C3(C(F)(F)F)CC3)cc2)c1 [Compound 15]	≥ 80%	≥ 80%	–	–
O=C([N-][n+]1ccccc1)c1cc(Oc2ccc(SC(F)(F)C(F)F)cc2)nc(-n2cccn2)c1 [Compound 221]	≥ 80%	≥ 80%	–	–
O=C([N-][n+]1ccccc1)c1cc(Cl)nc(Oc2ccc(SC(F)(F)F)cc2)c1 [Compound 25, (2-chloro-6-(4-((trifluoromethyl)thio)phenoxy)isonicotinoyl) (pyridin-1-ium-1-yl)amide]	≥ 80%	≥ 80%	–	mortality at 125 ppm (Phyllotreta striolata; [3]): ≥ 80%
COC(=O)c1cc(C(=O)[N-][n+]2ccccc2)cc(Oc2ccc(OC(F)(F)C(F)(F)F)cc2)n1 [Compound 220]	–	≥ 80%	–	–
O=C([N-][n+]1ccccc1)c1cc(Cl)nc(Oc2ccc(C3CC3(Cl)Cl)cc2)c1 (centres unmarked) [Compound 211]	–	–	100% mortality of Mythimna separata or 10% or less of the feed intake	mortality at 125 ppm (Phyllotreta striolata; [3]): ≥ 80%
